Patent US20230066946A1, “1,5-DIPHENYLPYRAZOLYL-3-OXYALKYL ACIDS AND 1-PHENYL-5-THIENYLPYRAZOLYL-3-OXYALKYL ACIDS AND THE USE THEREOF FOR CONTROL OF UNWANTED PLANT GROWTH” (Bayer Aktiengesellschaft, priority 2019, published 2023)

What was measured:
AMARE [1] = experiment: Post-emergence herbicidal action against AMARE; assay type: in vivo, Amaranthus retroflexus; settings: visual rating about 3 weeks after treatment
In short: (§1)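 Visual scoring, where 100% = dead and 0% = like untreated plants, was done about 3 weeks after treatment. Dose was 1280 or 320 g/ha, delivered as aqueous WP/EC suspension or emulsion with 0.5% additive at 600 L/ha. Pot-grown weeds in sandy loam were treated post-emergence at one leaf, 2-3 weeks post-sowing.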

AMARE [2] = experiment: Pre-emergence herbicidal action against AMARE; assay type: in vivo, Amaranthus retroflexus; settings: scored visually after about 3 weeks vs untreated controls; for Pre-emergence action at 320 g/ha against AMARE in %: 100% = plants have died, 0% = like control plants; for Pre-emergence action against AMARE in %: 1280 g/ha
In short: (§2)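 Pre-emergence, sandy loam, pots doubly sown. WP/EC formulations + 0.5% additive, 600 L/ha water, sprayed on soil surface; 1280 or 320 g/ha. Greenhouse ~3 wk; visual % effect vs untreated.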

harmful plants [3] = experiment: Post-emergence herbicidal action, summary of Tables 5.1-5.16; assay type: in vivo; settings: result in words
Description: Seeds of mono- and dicotyledonous weed plants are placed in plastic pots in sandy loam soil (twin sowing with one species each of mono- or dicotyledonous weed plants per pot), covered with soil and cultivated in a greenhouse under controlled growth conditions. 2 to 3 weeks after sowing, the test plants are treated at the one-leaf stage. The compounds of the invention, formulated in the form of wettable powders (WP) or as emulsion concentrates (EC), are applied to the green parts of the plants as aqueous suspension or emulsion with addition of 0.5% additive at a water application rate equivalent to 600 litres per hectare. After the test plants have been kept in the greenhouse under optimum growth conditions for about 3 weeks, the activity of the preparations is rated visually in comparison to untreated controls. For example, 100% activity=the plants have died, 0% activity=like control plants. Tables 5.1-5.16 below show the effects of selected compounds of the general formula (I) according to Tables 1 to 3 on various harmful plants at an application rate corresponding to 1280 or 320 g/ha, which have been obtained by the aforementioned experimental method. As the results from Tables 5.1-5.16 show, compounds of the invention have good herbicidal post-emergence efficacy against a broad spectrum of weed grasses and weeds. […] For example, compounds Nos. I-002, I-006, I-022, I-056 and I-072 applied by the post-emergence method have very good herbicidal action (80% to 100% herbicidal action) against harmful plants such as Alopecurus myosuroides, Amaranthus retroflexus, Matricaria inodora, Setaria viridis, Pharbitis purpurea and Stellaria media at an application rate of 1.28 kg of active substance or less per hectare.

PHBPU = experiment: Post-emergence herbicidal action against PHBPU; assay type: in vivo, Pharbitis purpurea; settings: 320 g/ha, visual rating about 3 weeks after treatment
In short: as §1

STEME [4] = experiment: Post-emergence herbicidal action against STEME; assay type: in vivo, Stellaria media; settings: visual rating about 3 weeks after treatment
In short: as §1

VERPE [5] = experiment: Pre-emergence herbicidal action against VERPE; assay type: in vivo, Veronica persica; settings: 320 g/ha, scored visually after about 3 weeks vs untreated controls
In short: as §2

POLCO [6] = experiment: Post-emergence herbicidal action against POLCO; assay type: in vivo, Polygonum convolvulus; settings: 320 g/ha, visual rating about 3 weeks after treatment
In short: as §1

ECHCG [7] = experiment: Pre-emergence herbicidal action against ECHCG; assay type: in vivo, Echinochloa crus-galli; settings: scored visually after about 3 weeks vs untreated controls, 100% = plants have died, 0% = like control plants
In short: as §2

STEME [8] = experiment: Pre-emergence herbicidal action against STEME; assay type: in vivo, Stellaria media; settings: scored visually after about 3 weeks vs untreated controls
In short: as §2

SETVI [9] = experiment: Pre-emergence herbicidal action against SETVI; assay type: in vivo, Setaria viridis; settings: 1280 g/ha, scored visually after about 3 weeks vs untreated controls
In short: as §2

MATIN [10] = experiment: Post-emergence herbicidal action against MATIN; assay type: in vivo, Matricaria inodora; settings: visual rating about 3 weeks after treatment
In short: as §1

SETVI [11] = experiment: Post-emergence herbicidal action against SETVI; assay type: in vivo, Setaria viridis; settings: 1280 g/ha, post-emergence at one-leaf stage, rated visually after about 3 weeks vs untreated controls
In short: as §1

ALOMY = experiment: Pre-emergence herbicidal action against ALOMY; assay type: in vivo, Alopecurus myosuroides; settings: scored visually after about 3 weeks vs untreated controls, 100% = plants have died, 0% = like control plants
Text: (§3) Seeds of mono- and dicotyledonous weed plants are placed in plastic pots in sandy loam soil (doubly sown with one species each of mono- or dicotyledonous weed plants per pot) and covered with soil. The compounds of the invention, formulated in the form of wettable powders (WP) or as emulsion concentrates (EC), are then applied onto the surface of the covering soil as aqueous suspension or emulsion with addition of 0.5% additive at a water application rate equivalent to 600 litres per hectare. After the treatment, the pots are placed in a greenhouse and kept under good growth conditions for the trial plants. After about 3 weeks, the effect of the preparations is scored visually in comparison with untreated controls as percentages. For example, 100% activity=the plants have died, 0% activity=like control plants. [table] Tables 4.1-4.15 below show the effects of selected compounds of the general formula (I) according to Tables 1 to 3 on various harmful plants at an application rate corresponding to 1280 or 320 g/ha, which have been obtained by the aforementioned experimental method.

VERPE [12] = experiment: Post-emergence herbicidal action against VERPE; assay type: in vivo, Veronica persica; settings: 320 g/ha, visual rating about 3 weeks after treatment
In short: as §1

harmful plants [13] = experiment: Pre-emergence herbicidal action, summary of Tables 4.1-4.15; assay type: in vivo; settings: result in words
Text: as §3, with “plants.” for “plants. [table] Tables 4.1-4.15 below show the effects of selected compounds of the general formula (I) according to Tables 1 to 3 on various harmful plants at an application rate corresponding to 1280 or 320 g/ha, which have been obtained by the aforementioned experimental method.”
Tables 4.1-4.15 below show the effects of selected compounds of the general formula (I) according to Tables 1 to 3 on various harmful plants at an application rate corresponding to 1280 or 320 g/ha, which have been obtained by the aforementioned experimental method.
For example, compounds no. I-008, I-056, I-057, I-061, I-067, I-070 and I-072 applied by the pre-emergence method have very good action (80% to 100% herbicidal action) against harmful plants such as Alopecurus myosuroides, Amaranthus retroflexus, Matricaria inodora, Polygonum convolvulus, Setaria viridis and Stellaria media at an application rate of 1.28 kg of active substance or less per hectare.

MATIN [14] = experiment: Pre-emergence herbicidal action against MATIN; assay type: in vivo, Matricaria inodora; settings: 1280 g/ha, scored visually after about 3 weeks vs untreated controls
Text: as §3

POLCO [15] = experiment: Pre-emergence herbicidal action against POLCO; assay type: in vivo, Polygonum convolvulus; settings: 320 g/ha, scored visually after about 3 weeks vs untreated controls
In short: as §2

ECHCG [16] = experiment: Post-emergence herbicidal action against ECHCG; assay type: in vivo, Echinochloa crus-galli; settings: 1280 g/ha, post-emergence at one-leaf stage, rated visually after about 3 weeks vs untreated controls
In short: as §1

VIOTR = experiment: Post-emergence herbicidal action against VIOTR; assay type: in vivo, Viola tricolor; settings: 320 g/ha, visual rating about 3 weeks after treatment
In short: as §1

Compound	Post-emergence action against AMARE in % (AMARE [1]; 320 g/ha) [%]	Pre-emergence action at 320 g/ha against AMARE in % (AMARE [2]) [%]	herbicidal efficacy against harmful plants when applied post-emergence (harmful plants [3])	Post-emergence action against PHBPU in % (PHBPU) [%]	Post-emergence action against STEME in % (STEME [4]; 320 g/ha) [%]	Pre-emergence action against VERPE in % (VERPE [5]) [%]	Post-emergence action against POLCO in % (POLCO [6]) [%]	Pre-emergence action at 1280 g/ha against ECHCG in % (ECHCG [7]) [%]	Pre-emergence action against STEME in % (STEME [8]; 1280 g/ha) [%]	Pre-emergence action against AMARE in % (AMARE [2]) [%]	Post-emergence action against STEME in % (STEME [4]; 1280 g/ha) [%]	Pre-emergence action against SETVI in % (SETVI [9]) [%]	Post-emergence action against AMARE in % (AMARE [1]; 1280 g/ha) [%]	Post-emergence action against MATIN in % (MATIN [10]; 1280 g/ha) [%]	Post-emergence action against SETVI in % (SETVI [11]) [%]	Pre-emergence action at 1280 g/ha against ALOMY in % (ALOMY) [%]	Post-emergence action against VERPE in % (VERPE [12]) [%]	Post-emergence action against MATIN in % (MATIN [10]; 320 g/ha) [%]	Pre-emergence action against POLCO in % (POLCO [15]) [%]	further results
COC(=O)COc1nn(-c2ccccc2)c(-c2ccc(F)cc2)c1C#N [I-014]	80	100	very good herbicidal efficacy	80	80	100	80	–	–	–	–	–	–	–	–	–	–	–	–	–
C1COCCN1.O=C(O)COc1nn(-c2cccc(F)c2)c(-c2ccccc2)c1I [II-04]	–	–	very good herbicidal efficacy	–	–	–	–	100	100	100	100	–	–	–	–	–	–	–	–	–
COC(=O)CNC(=O)C(C)Oc1nn(-c2ccccc2)c(-c2ccc(F)cc2)c1Cl (centres unmarked) [III-058]	–	–	very good herbicidal efficacy	–	–	–	–	90	100	100	100	90	90	100	100	–	–	–	–	–
COC(=O)COc1nn(-c2ccc(Cl)cc2)c(-c2ccc(F)cc2)c1Cl [I-007]	–	80	–	–	–	–	–	–	90	100	–	–	80	–	–	80	90	–	–	–
COC(=O)COc1nn(-c2ccccc2)c(-c2ccc(F)cc2)c1Cl [I-008]	80	100	–	–	90	90	80	–	100	100	90	90	80	90	–	100	90	90	80	herbicidal efficacy against harmful plants in the case of pre-emergence treatment (harmful plants [13]): good herbicidal efficacy; Pre-emergence action against MATIN in % (MATIN [14]): 90%
COC(=O)COc1nn(-c2ccccc2F)c(-c2ccccc2)c1Br [I-054]	90	100	very good herbicidal efficacy	100	90	100	80	90	100	100	100	90	100	100	100	–	80	90	100	Pre-emergence action against STEME in % (STEME [8]; 320 g/ha): 100%; Post-emergence action against ECHCG in % (ECHCG [16]): 90%; Post-emergence action against VIOTR in % (VIOTR): 90%
